Data from US20230192648A1, “IMMUNOREGULATORY COMPOUNDS” (NIMML INSTITUTE, priority 2021, published 2023).
Entries after “also recorded” stand apart in the source; their conditions may differ.

What was measured:
[1] = tested on: bm12 model of systemic inflammation; assay: bm12 mouse model of systemic inflammation; format: in vivo
[2] = tested on: DSS model of acute inflammatory bowel disease; assay: DSS model of acute inflammatory bowel disease; format: in vivo, mouse; conditions: oral, 10 mg/kg once daily, relative to vehicle; for proportion of CD4+ T cells in the colonic lamina propria: FIG. 3A; for F4/80hi macrophages (colon): FIG. 3C
Protocol: DSS model. Mice were given DSS in drinking water for seven days. At project initiation, mice were 8 weeks of age and began dosing 24 hours after being placed on DSS. Mice were weighed and scored daily for symptoms of disease (diarrhea, rectal bleeding, rectal inflammation, overall behavior). Treatments were prepared within a 0.5% methylcellulose (12-15 cP) solution. The dosage used was 10 mg/kg delivered once daily. Flow Cytometry. Colons were collected into RPMI/FBS buffer containing collagenase (300 U/mL) and DNase (50 U/mL) for digestion. Tissues were digested for 60 minutes under stirring at 37° C. Resultant cellular suspensions were filtered through 100 µm strainers, centrifuged (300 x g, 8 min), and washed in fresh RPMI. Following filtration of the resulting single cell suspensions, immune cells were purified by Percoll gradient of cell-containing 40% Percoll overlayed onto 70% Percoll solution. After centrifugation, interphase was collected and washed to obtain enriched colonic lamina propria cell fractions. Cells were labeled with mixtures of extracellular (CD45, CD3, CD4, CD8, CD25, F4/80, CD11b, MHCII) antibodies in a sequential live staining in 96-well plates. Data was acquired using a FACS Celesta flow cytometer with FACSDiva software.

influenza A (H1N1) = assay: Influenza A (H1N1) infection of mice, survival; format: in vivo, mouse; conditions: 25 mg/kg orally daily, FIG. 4; for delay of first mortality: vehicle mortality beginning at day 6
Protocol: Wild type C57BL/6 mice were anesthetized by isoflurane inhalation. Mice were infected with influenza A (H1N1) intranasally at a challenge titer of 2 x 10^4 TCID50/mL. Mice were treated daily with NIM-1001-2, NIM-1001-8, or NIM-1001-9 at a dose of 25 mg/kg orally via gavage. Mice were monitored daily.

[3] = tested on: experimental autoimmune encephalomyelitis; assay: Mouse model of experimental autoimmune encephalomyelitis (adoptive transfer of MOG-primed splenocytes); format: in vivo; conditions: oral 20 mg/kg from 7 days post-transfer
Protocol: Mouse model. C57BL6 mice were challenged at 10- to 16-weeks of age with MOG immunization with complete Freund’s adjuvant. MOG emulsion was administered to the cervical region and the hind flank at 100 µL per site to each mouse. After 10 days, spleens were harvested. Isolated splenocytes were cultured in the presence of MOG, IL-12 and anti-interferon gamma for 3 days. Splenocytes were then washed and injected into recipient mice at approximately 20 million cells per mouse. Oral treatment with NIM-1001-8 (20 mg/kg) or vehicle was initiated at 7 days post-transfer. Mice were be scored (0-3) daily for disease activity (coordination, gait, paralysis).
Flow Cytometry. Spinal cords were excised and digested with papain and DNase. Immune cells were purified by Percoll gradient. Cells were labeled with mixtures of extracellular (CD45, CD3, CD4, CD8, CD25) and intracellular (IL17) antibodies in a sequential live staining in 96-well plates in preparation for flow cytometry. Data was captured on a BD FACS Celesta and analyzed using FacsDiva.
Histology. Sections of the spinal cord from the lumbar region were extracted and fixed in formalin. Samples were embedded in paraffin and sectioned. By immunohistochemistry, samples were stained for the presence of glial fibrillary acidic protein (GFAP). Slides were assessed microscopically and scored (0-3) for the intensity and frequency of GFAP positive cells. GFAP is a common protein marker for astrocytes in the central nervous system

[4] = tested on: MRL/lpr model of systemic lupus erythematosus; assay: MRL/lpr genetic mouse model of SLE; format: in vivo; conditions: daily orogastric gavage from 12 weeks of age
Protocol: Mouse model. Female MRL/lpr mice were obtained at 8 weeks of age. Mice were followed for four weeks for the development of proteinuria. […] Treatment with NIM-1001-8, or vehicle control, were administered by orogastric gavage daily, beginning at 12 weeks of age, in a 0.5% methylcellulose suspension.
(§1) Immunological analysis. Urine was collected for assay for protein content to test for kidney function. Spleens were excised, crushed and filtered to provide a cellular suspension. Red blood cells were lysed. Cells were labeled with mixtures of extracellular (CD45, CD3, CD4, CD8, CD25) and intracellular (FOXP3, IL17) antibodies in a sequential live staining in 96-well plates in preparation for flow cytometry. Data was captured on a BD FACS Celesta and analyzed using FacsDiva.

[5] = tested on: genetic model of Alzheimer's disease; assay: Genetic mouse model of Alzheimer's disease; format: in vivo; conditions: oral 10 mg/kg for eight weeks, relative to vehicle
Protocol: Mouse model. Genetically modified mice that spontaneously develop cognitive impairment at 4 months of age and histological signs of disease at 6 months of age were randomized into the project at 24 weeks of age. Mice were orally treated with vehicle or NIM-1001-8 (10 mg/kg) for eight weeks. After eight weeks of treatment, mice were evaluated using a light-dark test to measure the time spent in the light relative to the dark. This is a measure of an anxiety response. Genetically modified mice were compared to age-matched wild-type mice (negative control).
Flow Cytometry. Brains were collected into RPMI/FBS buffer containing collagenase (300 U/mL) and DNase (50 U/mL) for digestion. Tissues were digested for 30 minutes under stirring at 37° C. Resultant cellular suspensions were filtered through 100 µm strainers, centrifuged (300 x g, 8 min), and washed in fresh RPMI. Following filtration of the resulting single cell suspensions, immune cells were purified by Percoll gradient of cell-containing 40% Percoll overlayed onto 70% Percoll solution. After centrifugation, interphase was collected and washed to obtain enriched immune cell fractions. Cells were labeled with mixtures of extracellular (CD45, CD3, CD4, CD8, CD11b, Gr1) and intracellular (IL17) antibodies in a sequential live staining in 96-well plates. Data was acquired using a FACS Celesta flow cytometer with FACSDiva software.

[6] = tested on: MPTP induced model of Parkinson's disease; assay: MPTP induced mouse model of Parkinson's disease; format: in vivo; conditions: oral 25 mg/kg once daily
Protocol: Mouse model. Mice were administered intraperitoneal injections of 1-methyl-4-phenyl-1,2,3,6-tetrahydropyridine (MPTP) and probenecid three times weekly for 4 weeks. In the second week of injections, oral treatment with vehicle or NIM-1001-8 (25 mg/kg) was initiated once daily. After four weeks of injections, motor control was assessed by counting the number of step errors during a challenging beam test. Mice challenged with MPTP were compared to mice challenged with a sham injection (negative control).
as §1, with “Flow Cytometry.” for “Immunological analysis. Urine was collected for assay for protein content to test for kidney function.”, “(IL21,” for “(FOXP3,”

[7] = tested on: IMQ-induced model of psoriasis; assay: Imiquimod (IMQ) induced model of psoriasis; format: in vivo, mouse; conditions: oral 20 mg/kg daily
Protocol: IMQ-induced model. C57BL/6 mice were anesthetized, shaved, and briefly exposed to depilatory cream on the surface of the back. Mice were given three days to recover from the procedure prior to entry to the study. After 3 days, mice were challenged with approximately 60 mg of […] imiquimod cream daily by spreading cream over the shaved area. Oral treatment with vehicle or NIM-1001-8 (20 mg/kg) occurred daily.
Analysis. Spleens were excised and crushed by microscope slides. Red blood cells were hypotonically lysed from the resultant suspension. Samples were filtered, washed and centrifuged prior to staining. Cells were labeled with mixtures of extracellular (CD45, CD3, CD4, CD8, CD25, F4/80, CD11b, MHCII) and intracellular (TNF, IL17) antibodies in a sequential live staining in 96-well plates in preparation for flow cytometry. Data was captured on a BD FACS Celesta and analyzed using FacsDiva.

[8] = tested on: NOD model of Sjogren's syndrome; assay: NOD mouse model of Sjogren's syndrome; format: in vivo; conditions: relative to vehicle, FIG. 10
Protocol: NOD model. Ten-week-old female NOD mice were treated with vehicle or NIM-1001-8 (2 or 50 mg/kg) daily by oral gavage for four weeks. After conclusion of the treatment period, submandibular glands were excised and fixed in formalin. Glands were processed and H&E-stained slides were prepared. Slides were scored by blinded reviewer, on a 0 to 4 composite scale encompassing level of inflammation and disease.

[9] = oral gavage daily, 20 mg/kg/day, relative to vehicle; FIG. 2A
[10] = oral gavage daily, 20 mg/kg/day, relative to vehicle; FIG. 2C
[11] = oral gavage daily, 20 mg/kg/day, relative to vehicle, FIG. 2C

Compound: CCc1noc(/C=C/c2cncc(Oc3cc(-c4nc(C)no4)cc(Cl)n3)c2C)n1 [NIM-1001-2]
- spleen size in proportion to overall body weight [1, 9]: significantly reduced
- proportion of CD25+ FOXP3+ regulatory T cells in the spleen [1, 10]: significantly increased
- proportion of CD4+ T cells in the colonic lamina propria [2]: reduced
- survival at day 10 (fraction of group) (influenza A (H1N1); vehicle 25% survival by day 10): two-thirds
- delay of first mortality (influenza A (H1N1)): one day

Compound: CCOC(=O)/C=C/c1cncc(Oc2cc(C(=O)NC)cc(Cl)n2)c1C [NIM-1001-4]
- proportion of CD25+ FOXP3+ regulatory T cells in the spleen [1, 11]: significantly increased; also recorded: largest magnitude of increase
- spleen size in proportion to overall body weight [1, 9]: reduced the normalized spleen size at a lesser degree

Compound: CCOC(=O)/C=C/c1cncc(Oc2cc(C(=O)OC)cc(Cl)n2)c1C [NIM-1001-8, methyl (E)-2-chloro-6-((5-(3-ethoxy-3-oxoprop-1-en-1-yl)-4-methylpyridin-3-yl)oxy)isonicotinate]
- proportion of CD25+ FOXP3+ regulatory T cells in the spleen [1, 11]: significantly increased; also recorded: largest magnitude of increase
- spleen size in proportion to overall body weight [1, 9]: significantly reduced
- proportion of CD4+ T cells in the colonic lamina propria [2]: reduced
- F4/80hi macrophages (colon) [2]: significant reductions
- survival at day 10 (influenza A (H1N1); vehicle 25% survival by day 10): 83%
- delay of first mortality (influenza A (H1N1)): two days
- overall disease severity (score 0-3) ([3]; FIG. 5A): amelioration
- proportion of CD4+ IL17+ T cells in the spinal cord ([3]; FIG. 5B): decreased
- GFAP positive staining in the spinal cord ([3]; FIG. 5C): decreased
- urine protein levels, reduction ([4]; relative to vehicle, FIG. 6A): more than two-fold
- splenic CD25+ FOXP3+ regulatory T cells ([4]; P < 0.05, FIG. 6B): significant increase
- splenic CD4+ IL17+ cells ([4]; P < 0.05, FIG. 6C): significant decrease
- time spent in the light (light-dark test) ([5]; FIG. 7A, 10 mg/kg): significantly increased; also recorded: restored the time to equal that of the negative control group
- proportion of neutrophils in the brain ([5]; FIG. 7B): decreased
- proportion of CD4+ IL17+ T cells in the brain ([5]; FIG. 7C): decreased
- number of step errors during a challenging beam test ([6]; relative to vehicle, FIG. 8A): significantly reduced; also recorded: near complete abrogation of MPTP effects
- CD4+ IL21+ T cells within the spleen ([6]; P < 0.05, FIG. 8B): significant reductions
- CD4+ IL17+ T cells within the spleen ([6]; P < 0.05, FIG. 8C): significant reductions
- proportion of TNF+ CD4+ T cells in the spleen ([7]; relative to vehicle, FIG. 9A): significantly reduced
- proportion of IL17+ CD4+ T cells in the spleen ([7]; relative to vehicle, FIG. 9B): significantly reduced
- proportion of F4/80hi inflammatory macrophages ([7]; FIG. 9C): decreased
- histological severity of disease in the submandibular glands (score 0 to 4) ([8]; 2 mg/kg daily by oral gavage for four weeks): significantly reduced
- histological severity of disease in the submandibular glands (score 0 to 4) ([8]; 50 mg/kg daily by oral gavage for four weeks): significantly reduced

Compound: CCNC(=O)/C=C/c1cncc(Oc2nccc(C(=O)NC)n2)c1C [NIM-1001-9]
- spleen size in proportion to overall body weight [1, 9]: significantly reduced
- proportion of CD25+ FOXP3+ regulatory T cells in the spleen [1, 10]: significantly increased
- survival at day 10 (fraction of group) (influenza A (H1N1); vehicle 25% survival by day 10): two-thirds
- delay of first mortality (influenza A (H1N1)): one day

Compound: CCOC(=O)/C=C/c1cncc(Nc2cc(C(=O)OC)cc(Cl)n2)c1 [NIM-1001-10]
- spleen size in proportion to overall body weight [1, 9]: reduced the normalized spleen size at a lesser degree

Compound: CCc1noc(/C=C/c2cncc(Nc3cc(-c4nc(C)no4)cc(Cl)n3)c2)n1 [NIM-1001-11]
- proportion of CD4+ T cells in the colonic lamina propria [2]: reduced
- F4/80hi macrophages (colon) [2]: significant reductions

Compound: CCNC(=O)/C=C/c1cncc(Nc2nccc(C(=O)NC)n2)c1 [NIM-1001-12]
- spleen size in proportion to overall body weight [1, 9]: significantly reduced
- proportion of CD25+ FOXP3+ regulatory T cells in the spleen [1, 10]: significantly increased
- proportion of CD4+ T cells in the colonic lamina propria [2]: reduced
- F4/80hi macrophages (colon) [2]: significant reductions
